The target of data set [1] is T1, cyclooxygenase 1 (COX-1) (Ovis aries, UniProt P05979).
T1 sequence (P05979 25-600): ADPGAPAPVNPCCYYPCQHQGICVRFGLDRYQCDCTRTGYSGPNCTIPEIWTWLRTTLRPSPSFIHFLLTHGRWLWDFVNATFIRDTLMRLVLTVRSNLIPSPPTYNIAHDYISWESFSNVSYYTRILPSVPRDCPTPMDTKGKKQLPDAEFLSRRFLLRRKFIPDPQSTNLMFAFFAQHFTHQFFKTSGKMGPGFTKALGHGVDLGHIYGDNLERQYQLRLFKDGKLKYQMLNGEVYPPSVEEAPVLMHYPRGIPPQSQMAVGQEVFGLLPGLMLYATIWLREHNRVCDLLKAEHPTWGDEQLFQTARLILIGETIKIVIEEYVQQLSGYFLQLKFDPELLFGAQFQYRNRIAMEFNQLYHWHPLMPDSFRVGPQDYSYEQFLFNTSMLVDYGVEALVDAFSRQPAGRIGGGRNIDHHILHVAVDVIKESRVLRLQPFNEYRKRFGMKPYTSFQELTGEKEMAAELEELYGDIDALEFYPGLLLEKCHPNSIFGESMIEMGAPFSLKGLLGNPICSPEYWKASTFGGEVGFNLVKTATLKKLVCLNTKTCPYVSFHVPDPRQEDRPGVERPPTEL
The experiment in a line: Inhibition of COX-1 (arachidonic acid incubation, PGE2 formation by malondialdehyde quantitation). The settings on record: 300 μM; COX-1 derived from ram seminal vesicles.
Method: (§1) The inhibition of COX-I was measured by incubating arachidonic acid with COX-1 derived from ram seminal vesicles. The inhibition of COX-2 was measured by incubation of arachidonic acid with COX-2 derived from sheep placenta. […] In each assay, the formation of prostaglandin E2 (PGE2) was measured by spectrophotometric quantitation of malondialdehyde.

Data set [2] deals with T2, cyclooxygenase 2 (COX-2) (Ovis aries, UniProt P79208).
T2 sequence (P79208 17-603): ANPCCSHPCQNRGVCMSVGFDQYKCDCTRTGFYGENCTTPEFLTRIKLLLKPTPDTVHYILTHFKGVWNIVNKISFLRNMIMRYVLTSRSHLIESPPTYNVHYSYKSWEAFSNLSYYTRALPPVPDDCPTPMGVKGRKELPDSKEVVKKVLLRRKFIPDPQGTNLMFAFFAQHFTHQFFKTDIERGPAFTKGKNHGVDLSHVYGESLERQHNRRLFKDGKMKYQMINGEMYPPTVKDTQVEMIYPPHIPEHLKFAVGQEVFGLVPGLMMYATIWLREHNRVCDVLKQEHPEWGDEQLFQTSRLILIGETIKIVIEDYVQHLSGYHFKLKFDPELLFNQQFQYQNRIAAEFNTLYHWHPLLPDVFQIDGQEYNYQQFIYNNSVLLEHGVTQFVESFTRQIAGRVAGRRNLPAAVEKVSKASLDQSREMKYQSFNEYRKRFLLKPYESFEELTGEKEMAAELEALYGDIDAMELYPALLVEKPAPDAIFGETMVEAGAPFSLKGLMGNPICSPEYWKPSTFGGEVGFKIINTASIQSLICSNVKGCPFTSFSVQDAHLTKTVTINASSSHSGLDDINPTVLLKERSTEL
The experiment in a line: Inhibition of COX-2 (arachidonic acid incubation, PGE2 formation by malondialdehyde quantitation). The settings on record: 300 μM; COX-2 derived from sheep placenta.
Method: as §1

The subject of data set [3] is adjuvant-induced footpad edema. The experiment in a line: Adjuvant assay (adjuvant-induced footpad edema). The class given is in vivo. The settings on record: Male Lewis rats; 3 mg/kg, po; dosing day 14 to day 21 post-adjuvant. As to the method: This assay is a model for chronic inflammation. See, for example, […], “Rat Adjuvant Arthritis: A Model of Chronic Inflammation,” Pharmacological Methods in the Control of Inflammation, 363-380 (1989) and references cited therein. In this assay, Male Lewis rats weighing between 180-220 g were lightly anesthetized with an ip injection of 30 mg/kg of sodium pentobarbital (50 mg/mL). Desiccated Mycobacterium butyrium (Difco, 20 mg/mL) suspended in mineral oil was injected (50 μL) at both sides of the base of the tail under the skin. A line was tattooed on both rear paws at 5 mm above the angle of the ankle. The paw volumes, under the line, were measured by volume displacement using a plethysmonmeter (Ugo Basile) at the day of adjuvant injection (day 0) and on day 14. On day 14, animals with paw volumes equal to the mean of paw volumes±SD were randomized into treatment groups. Rats which fell outside±1 SD were not used in the experiment. […] Dosing began on day 14, and continued until final assessment on day 21 post-adjuvant injection. […] This group has a slightly positive volume increase when paw volumes on day 21 are subtracted from day 0 values due to growth of the rat. […] Compounds reducing paw volume by at least about 30% compared to vehicle control group were considered effective in this test.

Data on 4 compounds can be found in patent publication US6342523B1, “3,4,5-trisubstituted aryl nitrone compounds, pharmaceutical compositions containing the same and methods for treating inflammation” (Centaur Pharmaceuticals, Inc., priority 1998, dated 2002).

`CC(=O)Oc1c(C(C)(C)C)cc(/C=[N+](\[O-])C(C)(C)C)cc1C(C)(C)C` [Example 1, α-(4-Acetoxy-3,5-di-tert-butylphenyl)-N-tert-butylnitrone]: the “Inhibition of COX-1” value in data set [1] is on record as “did not significantly affect”. In data set [2], the “Inhibition of COX-2” value was “did not significantly affect”.

For `CCC(=O)Oc1c(C(C)(C)C)cc(/C=[N+](\[O-])C(C)(C)C)cc1C(C)(C)C` [Example 8, α-(4-propionyloxy-3,5-di-tert-butylphenyl)-N-tert-butylnitrone], the melting point (usually the temperature, or range, at which the solid turns liquid) was 202 to 222 °C.

For the compound `CC(=O)Oc1c(C(C)(C)C)cc(/C=[N+](/C)[O-])cc1C(C)(C)C` [Example 9, α-(4-acetoxy-3,5-di-tert-butylphenyl)-N-methylnitrone], the melting point was in the range of 136 to 143 °C.

As to `COc1ccc2c(c1)c(CC(=O)O)c(C)n2C(=O)c1ccc(Cl)cc1` [indomethacin], the “Paw volume compared to vehicle controls” value in data set [3] is “significantly reduced paw volume”.
